# Assay results published in patent US20220378756A1, “ACTIVATING PYRUVATE KINASE R” (FORMA Therapeutics, Inc., priority 2019, published 2022).
# Assays:
# [1] = system: 2,3-DPG, ATP, p50, deformability of sickle RBCs; experiment: Phase 1, SCD patients single 700 mg dose: pharmacodynamics; format: in vivo, human
# Description: In this study, SAD/MAD cohorts are randomized (3 to 1) to receive Compound 1 or placebo (P). Compound 1 was evaluated first in 4 healthy SAD cohorts and 4 healthy MAD (14-day dosing period) cohorts. Based on the safety, and PK/PD profile from HS, Compound 1 is then evaluated in 1 SCD SAD cohort and 2 SCD MAD cohorts. Specifically, based on the safety and pharmacokinetic/pharmacodynamics (PK/PD) profile in healthy volunteer studies, Compound 1 is evaluated in patients (pts) with SCD, first in a single dose (SD or SAD) cohort and then in multiple-dose (MD or MAD) cohorts (14-day and 12-week). Safety assessments include AEs, vital signs, ECGs and laboratory parameters. PK/PD blood sampling was performed on Day 1 (SAD/MAD) and Day 14 (MAD) and up to 72 h after the last dose and at the end-of-study visit. PD parameters included 2,3-DPG, ATP, and p50 in all cohorts with additional PD studies (including oxygen scan) performed only in the SCD cohorts. PD parameters included 2,3-DPG, ATP, p50, RBC deformability with controlled deoxygenation and reoxygenation (Lorrca® oxygen scan) and varying osmolality (Lorrca® osmoscan)). To maintain study blind, pt identifiers were removed when needed.
# A potential exposure to the maximum PD response dose range to evaluate in patients with SCD was identified. Based on the safety and PK/PD profile in healthy volunteer studies, a 700 mg single dose was evaluated in patients with SCD (n=7). A single 700 mg dose of Compound 1 was selected to evaluate in patients with SCD to enable daily dosing cohorts at lower exposures.
# The effects of a single dose of Compound 1 (700 mg) versus placebo on oxygen scan, oxygen affinity (p50), and osmoscan in SCD patients were evaluated. At the Point of Sickling (POS or PoS), polymerization of de-oxy HbS can affect the deformability of the RBCs and the elongation Index starts to decrease. The EImin refers to the lowest level of RBC deformability in the Oxygenscan. The lower the EImin the lower the deformability of the RBC. […] As shown in FIG. 53 and Table 25 (Oxygen affinity curve), Compound 1 increased O2 affinity (decreased p50) in all participants treated. […] These effects were transient, returning to baseline 3 to 7 days after the single dose of Compound 1.
# The oxygen affinity of RBCs was measured in patient blood using a Hemox Analyzer (TCS Scientific Corp.), an automatic system for the recording of blood oxygen equilibrium curves and related phenomena. The Hemox Analyzer was used according to standard methods to determine the hemoglobin-oxygen dissociation curves for whole blood samples, numerically characterized by the p50, the partial pressure of oxygen at which hemoglobin is 50% saturated. […] In the case of hemoglobin, the wavelength of maximum absorbance is the measuring wavelength (560 nm), while the reference wavelength is at the isosbestic point at (570 nm). The absorbance at the isosbestic point remains unchanged during the deoxygenation process of the hemoglobin, however the measuring wavelength (560 nm) undergoes a drastic change in absorbance. This change is detected by the electronic circuitry and is plotted as the log/ratio change between the two wavelengths. The log/ratio measurement at 560 nm and 570 nm is utilized to measure the optical absorbance change during the deoxygenation of the hemoglobin. Simultaneously with the measurement of the hemoglobin absorbance, the oxygen concentration is directly measured in the sample using a Clark electrode. […]
# [2] = system: H295R adreno-cortical carcinoma cell line; experiment: Cell viability (MTT Kit); format: cell-based
# Description: To assess potential effects on steroidogenesis, Compound 1 was screened for steroid modulation in vitro using the H295R adreno-cortical carcinoma cell line (at 200 to 0.0002 μM) and in an assay to monitor cell viability (MTT Kit). Compound 1 indicated steroid modulation potential (% over vehicle) only at 200 µM, the top concentration tested, with 100% cellular viability at concentrations ≤20 μM (90% viability at 200 μM).
# Human SCD cells = experiment: Ex vivo sickling under severe hypoxic conditions (2% oxygen); format: cell-based; conditions: 10 μM
# Description: Red blood cells from SCD patients were used to evaluate the effects of Compound 1 on Hgb affinity for oxygen (i.e., oxygen affinity) and sickling under hypoxic conditions. Cells were incubated at 37° C. for 1, 2, and 3 hr with HEPES buffered saline (HBS) (untreated), HBS+dimethyl sulfoxide (DMSO) (vehicle), or 10 μM Compound 1. To assess oxygen dissociation, Hgb oxygen equilibrium curves were collected during deoxygenation.
# Compound 1 (10 μM) reduced cell sickling under severe hypoxic conditions of 2% oxygen (PO2 of <20 mmHg) for up to 20 min (Table 9).
# [3] = SCD patients, 24 hours after single 700-mg dose
structure (smiles),measurement,setting,value
"O=C([C@H](CO)c1ccccc1)N1CC2=C(C1)CN(S(=O)(=O)c1cnc3c(c1)OCCO3)C2 (single isomer, unassigned) [Compound 1]","decrease of 2,3-DPG blood concentrations",[1]; [3],26%
same,increase of ATP blood concentrations,[1]; [3],30%
same,Hb increase compared with placebo,"[1]; SCD, 24 h after a single dose",~0.9 g/dL
same,"POS (Oxygenscan), post-dose (24 hours)","[1]; SCD, single 700 mg, median (range), pre-dose 35.4 (27.3, 38.8)","24.0 (17.9, 31.8)"
same,"Ohyper (Osmoscan), post-dose (24 hours)","[1]; SCD, single 700 mg, median (range), pre-dose 380 (371, 399)","400 (371, 412)"
same,cellular viability,[2]; 200 μM,90%
same,cellular viability,[2]; concentrations ≤20 μM,100%
same,% Protection,Human SCD cells; 15 min in hypoxic conditions (maximum),16%
same,Net % of Sickled Cells,"Human SCD cells; 20 min in hypoxic conditions, DMSO 71",60%
